# Results as given in patent USRE49351E1, “Cytoprotective agent” (Biogen MA Inc., priority 2009, dated 2023).
# Marks after values point to notes of the source that are not given here.
# System: crab-eating monkey cerebral infarction model
# Experiment: Crab-eating monkey cerebral infarction model (thrombotic middle cerebral artery occlusion)
# Type: in vivo
# Details: mean ± S.D.
# Method: A reducing effect of a cerebral infarction size and an improving effect of a neurological symptom of SMTP-7 in a crab-eating monkey cerebral infarction model were studied according to the following testing method.
# SMTP-7 administration group: 10 mg/kg, 2 to 3 year old male crab-eating monkeys, 6 monkeys
# Administration method of test substance: The administration volume was set at 10 mL/kg. A Surflo indwelling needle was indwelled in the left saphenous vein, 1 mg/kg (1 mL/kg) was administered 1 hour after ischemia as a bolus over 5 sec, then 9 mg/kg (9 mL/kg) was administered continuously over 30 min using a syringe pump.
# Preparation of administration liquid: SMTP-7 was dissolved in a physiological saline solution at 1 mg/mL. More particularly, to 70.0 mg of a SMTP-7 sodium salt (containing 63.1 mg of SMTP-7) was added 63.1 mL of a physiological saline solution, and the liquid was stirred by a magnetic stirrer under heating in a hot-water bath (37° C.) for dissolution. An ultrasonic treatment was conducted according to need. After dissolution the liquid was subjected to filter sterilization by a sterile filter (0.22 μm, made of cellulose acetate). The administration liquid was prepared before using. After the preparation it was kept in a 37° C. hot-water bath until immediately before the use, and the administration was finished within 4 hours after the preparation.
# The treatment of cerebral infarction was conducted according to the standard experimental protocol (SPHPR710-15A). More particularly, after extirpating the right eyeball, the eyeground bone outside the optic nerve exit was removed by a dental drill to expose the dura mater. The dura mater was carefully detached to identify the middle cerebral artery. The origin part of the middle cerebral artery was separated from the arachnoid mater and a light irradiation probe for generating a thrombus was fixed on the middle cerebral artery. At the distal end of the probe a probe of a pulse Doppler blood flowmeter (Crystal Bio, PDV-20) was placed. An intravenous administration of rose bengal (Wako Pure Chemical Industries, Ltd.) (20 mg/kg) over 6 min was initiated and an irradiation with green light with the wavelength of 540 nm (1.40 million LUX) was conducted for 20 min to block the middle cerebral artery by a thrombus. The initiation time of the light irradiation and the administration of the rose Bengal was defined as the initiation time of ischemia. The middle cerebral artery blood flow was measured by the pulse Doppler blood flowmeter continuously for 2 hours from the initiation time of the light irradiation and then the incision was closed. A series of procedures were carried out completely under an operating microscope to minimize intraoperative hemorrhage to the utmost. Further, the rectal temperature of an animal under operation was monitored, and the animal was kept warmed by a heating pad, so as to maintain the body temperature of the animal in a physiological range (37.0 to 38.5° C.).
# Neurological symptoms as described below were observed 24 hours after ischemia according to J. Neurosci. Meth., 2001; 105: 45-53.
# After the neurological symptom observation 24 hours after the operation, a euthanasia treatment was conducted by means of a megadose of pentobarbital and the brain was extirpated. Six mm-thick coronal slices were prepared and photographed for quantitative determination of a hemorrhagic infarction. Thereafter, the infarction area was stained in a 2% TTC solution and photographs were taken for quantitative determination of an infarction size. For evaluations of the hemorrhagic infarction and the infarction area, the occipital lobe side of each slice was used.
# Photographs of an individual were converted to TIF images and hemorrhagic infarction areas and the respective infarction areas were marked by Photoshop 7.0 (Adobe), which sizes were then measured by Scion Image 0.4.0.3 (Scion Corporation). […]
# [1] = 10 mg/kg i.v. 1 hour after ischemia, 24 hours after ischemia
compound,measurement,setting,value
CC(C)=CCC/C(C)=C/CC[C@@]1(C)Oc2c(c(O)cc3c2CN(CCC[C@@H](C(=O)O)N2Cc4c(cc(O)c5c4O[C@](C)(CC/C=C(\C)CCC=C(C)C)[C@@H](O)C5)C2=O)C3=O)C[C@@H]1O [SMTP-7],Occlusion Time,"0~60 min after ischemia (before administration), 10 mg/kg i.v.",45.5 ± 3.8 min
same,Hemorrhagic infarction area size,[1],14.1 ± 7.4 (P < 0.05) mm^2
same,cerebral infarction size: Basal ganglion,[1],1419.7 ± 633.8* mm^3
same,cerebral infarction size: Cerebral cortex,[1],237.8 ± 198.8 mm^3
same,cerebral infarction size: Total,[1],1745.1 ± 749.5* mm^3
same,cerebral infarction size: White matter,[1],87.7 ± 71.8 mm^3
same,neurological symptom score: Consciousness,[1],7.7 ± 2.0
same,neurological symptom score: Motor system,[1],10.7 ± 2.7
same,neurological symptom score: Sensory system,[1],7.5 ± 1.6
same,neurological symptom score: Skeletal muscle coordination system,[1],5.3 ± 2.4
same,neurological symptom score: Total,[1],31.2 ± 7.9
same,Total Occlusion Time,"10 mg/kg i.v. 1 hour after ischemia, measured for 2 hours, 6 monkeys",86.8 ± 18.8 min
same,Time to Occlusion,"10 mg/kg i.v. 1 hour after ischemia, middle cerebral artery blood flow, 6 monkeys",6.9 ± 2.5 min
same,Occlusion Time,"60~120 min after ischemia, 10 mg/kg i.v. 1 hour after ischemia",41.3 ± 18.9 min
